PubChem BioAssay AID1963835 (Molecular Pharmacology Branch, DTP, NCI, 2024)

Tested on: 699152-130-R-J1-PDC complex spheroid viability
Experiment: Anticancer human tumor 699152-130-R-J1-PDC patient-derived pancreatic carcinoma cell line growth inhibition [POLQ]
Conditions: for IC50: curve of first compound; for viability, T/C: stronger effect = lower value; active = viability on the fitted dose curve at most 10% of control; inactive = the rest
How it was run: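 Growth inhibition in 3D: complex spheroids (tumor PDC, HUVEC, MSC) treated with POLQ inhibitor combinations; where Cmax unknown, highest tested concentration 10 microM, except SN-38 at 1 microM.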

[1] = second compound 0.0316 µM, first compound 0.0316 µM
[2] = second compound 0.0316 µM, first compound 0.1 µM
[3] = second compound 0.0316 µM, first compound 0.316 µM
[4] = second compound 0.0316 µM, first compound 1 µM
[5] = second compound 0.0316 µM, first compound 3.16 µM
[6] = second compound 0.0316 µM, first compound 10 µM
[7] = second compound 0.1 µM, first compound 0.0316 µM
[8] = second compound 0.1 µM, first compound 0.1 µM
[9] = second compound 0.1 µM, first compound 0.316 µM
[10] = second compound 0.1 µM, first compound 1 µM
[11] = second compound 0.1 µM, first compound 3.16 µM
[12] = second compound 0.1 µM, first compound 10 µM
[13] = second compound 0.316 µM, first compound 0.0316 µM
[14] = second compound 0.316 µM, first compound 0.1 µM
[15] = second compound 0.316 µM, first compound 0.316 µM
[16] = second compound 0.316 µM, first compound 1 µM
[17] = second compound 0.316 µM, first compound 3.16 µM
[18] = second compound 0.316 µM, first compound 10 µM
[19] = second compound 1 µM, first compound 0.0316 µM
[20] = second compound 1 µM, first compound 0.1 µM
[21] = second compound 1 µM, first compound 0.316 µM
[22] = second compound 1 µM, first compound 1 µM
[23] = second compound 1 µM, first compound 3.16 µM
[24] = second compound 1 µM, first compound 10 µM
[25] = second compound 3.16 µM, first compound 0.0316 µM
[26] = second compound 3.16 µM, first compound 0.1 µM
[27] = second compound 3.16 µM, first compound 0.316 µM
[28] = second compound 3.16 µM, first compound 1 µM
[29] = second compound 3.16 µM, first compound 3.16 µM
[30] = second compound 3.16 µM, first compound 10 µM
[31] = second compound 10 µM, first compound 0.0316 µM
[32] = second compound 10 µM, first compound 0.1 µM
[33] = second compound 10 µM, first compound 0.316 µM
[34] = second compound 10 µM, first compound 1 µM
[35] = second compound 10 µM, first compound 3.16 µM
[36] = second compound 10 µM, first compound 10 µM
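Also: spheroids exposed to agents for 7 days before viability reading.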
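For viability, T/C in this document: percent of DMSO vehicle control viability so 100% = vehicle and 0% = no viable signal.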

CC1COCCN1c1cc(C2(O)CC3CCC(C2)O3)c2cnn(-c3ccn[nH]3)c2n1 (stereo not given) + COC1C(OC(N)=O)C(O)C(Oc2ccc3c(O)c(NC(=O)c4ccc(O)c(CC=C(C)C)c4)c(=O)oc3c2C)OC1(C)C
0.811 µM: IC50 (second compound 0.1 µM)
1.4 µM: IC50 (second compound 0.316 µM)
1.44 µM: IC50 (second compound 10 µM)
inactive: viability, T/C [1] 94.4% | viability, T/C [2] 80.1% | viability, T/C [3] 67.3% | viability, T/C [4] 51.5% | viability, T/C [5] 43% | viability, T/C [6] 34.2% | viability, T/C [7] 109% | viability, T/C [8] 79.4% | viability, T/C [9] 60.9% | viability, T/C [10] 46.8% | viability, T/C [11] 41.4% | viability, T/C [12] 34.2% | viability, T/C [13] 104% | viability, T/C [14] 84.8% | viability, T/C [15] 61% | viability, T/C [16] 52.1% | viability, T/C [17] 49% | viability, T/C [18] 34.5% | viability, T/C [19] 96.6% | viability, T/C [20] 80.7% | viability, T/C [21] 65.3% | viability, T/C [22] 50.2% | viability, T/C [23] 43.6% | viability, T/C [24] 40.1% | viability, T/C [25] 101% | viability, T/C [26] 83% | viability, T/C [27] 65% | viability, T/C [28] 45.8% | viability, T/C [29] 45.4% | viability, T/C [30] 34.9% | viability, T/C [31] 108% | viability, T/C [32] 83.4% | viability, T/C [33] 62.5% | viability, T/C [34] 55.3% | viability, T/C [35] 45.6% | viability, T/C [36] 36.3%
1.36 µM: IC50 (second compound 0.0316 µM)
1.17 µM: IC50 (second compound 1 µM)
0.939 µM: IC50 (second compound 3.16 µM)

CCc1cc2c(N3CCc4c(cc(Cn5ccnc5)cc4-c4cn(C)nc4C(F)(F)F)C3=O)ccnc2c(OC)n1 + Cc1cccc(N(C)C(=O)C2C(O)CCN2c2nc(C)cc(C(F)(F)F)c2C#N)c1
inactive: viability, T/C [1] 80% | viability, T/C [2] 90.4% | viability, T/C [3] 105% | viability, T/C [4] 114% | viability, T/C [5] 103% | viability, T/C [6] 95% | viability, T/C [7] 75.8% | viability, T/C [8] 89.3% | viability, T/C [9] 88.1% | viability, T/C [10] 94.2% | viability, T/C [11] 97.3% | viability, T/C [12] 94.9% | viability, T/C [13] 86.7% | viability, T/C [14] 101% | viability, T/C [15] 91.5% | viability, T/C [16] 102% | viability, T/C [17] 103% | viability, T/C [18] 93.6% | viability, T/C [19] 101% | viability, T/C [20] 93% | viability, T/C [21] 98.7% | viability, T/C [22] 86.8% | viability, T/C [23] 105% | viability, T/C [24] 91.7% | viability, T/C [25] 99.2% | viability, T/C [26] 94.5% | viability, T/C [27] 98.4% | viability, T/C [28] 95.1% | viability, T/C [29] 90.9% | viability, T/C [30] 99.8% | viability, T/C [31] 85.6% | viability, T/C [32] 93.1% | viability, T/C [33] 92.5% | viability, T/C [34] 94.7% | viability, T/C [35] 95.1% | viability, T/C [36] 95.5%
> 10 µM: IC50 (second compound 0.0316 µM) | IC50 (second compound 0.1 µM) | IC50 (second compound 0.316 µM) | IC50 (second compound 1 µM) | IC50 (second compound 3.16 µM) | IC50 (second compound 10 µM)

CNCc1ccc(-c2[nH]c3cc(F)cc4c3c2CCNC4=O)cc1 + Cc1cccc(N(C)C(=O)C2C(O)CCN2c2nc(C)cc(C(F)(F)F)c2C#N)c1
inactive: viability, T/C [1] 95.5% | viability, T/C [2] 88.8% | viability, T/C [3] 101% | viability, T/C [4] 95.3% | viability, T/C [5] 113% | viability, T/C [6] 126% | viability, T/C [7] 88.8% | viability, T/C [8] 106% | viability, T/C [9] 92.2% | viability, T/C [10] 103% | viability, T/C [11] 105% | viability, T/C [12] 119% | viability, T/C [13] 95.5% | viability, T/C [14] 94.2% | viability, T/C [15] 96.6% | viability, T/C [16] 111% | viability, T/C [17] 123% | viability, T/C [18] 114% | viability, T/C [19] 92.7% | viability, T/C [20] 86.9% | viability, T/C [21] 88.9% | viability, T/C [22] 94.8% | viability, T/C [23] 99.4% | viability, T/C [24] 127% | viability, T/C [25] 101% | viability, T/C [26] 87.7% | viability, T/C [27] 96.6% | viability, T/C [28] 98.1% | viability, T/C [29] 115% | viability, T/C [30] 122% | viability, T/C [31] 99.2% | viability, T/C [32] 101% | viability, T/C [33] 105% | viability, T/C [34] 97.9% | viability, T/C [35] 109% | viability, T/C [36] 116%
> 10 µM: IC50 (second compound 0.0316 µM) | IC50 (second compound 0.1 µM) | IC50 (second compound 0.316 µM) | IC50 (second compound 1 µM) | IC50 (second compound 3.16 µM) | IC50 (second compound 10 µM)

CCc1cc2c(N3CCc4c(cc(Cn5ccnc5)cc4-c4cn(C)nc4C(F)(F)F)C3=O)cc(C)nc2c(OC)n1 + Cc1cccc(N(C)C(=O)C2C(O)CCN2c2nc(C)cc(C(F)(F)F)c2C#N)c1
> 10 µM: IC50 (second compound 0.0316 µM) | IC50 (second compound 0.1 µM) | IC50 (second compound 0.316 µM) | IC50 (second compound 1 µM) | IC50 (second compound 3.16 µM) | IC50 (second compound 10 µM)
inactive: viability, T/C [1] 88% | viability, T/C [2] 96.5% | viability, T/C [3] 89.3% | viability, T/C [4] 94.1% | viability, T/C [5] 92.9% | viability, T/C [6] 102% | viability, T/C [7] 90.8% | viability, T/C [8] 93.2% | viability, T/C [9] 95.4% | viability, T/C [10] 97.1% | viability, T/C [11] 91.1% | viability, T/C [12] 98% | viability, T/C [13] 94.3% | viability, T/C [14] 94.5% | viability, T/C [15] 96.9% | viability, T/C [16] 103% | viability, T/C [17] 93.8% | viability, T/C [18] 99.8% | viability, T/C [19] 97.1% | viability, T/C [20] 89.5% | viability, T/C [21] 98.8% | viability, T/C [22] 94% | viability, T/C [23] 91.9% | viability, T/C [24] 88.7% | viability, T/C [25] 104% | viability, T/C [26] 100% | viability, T/C [27] 92.2% | viability, T/C [28] 90.5% | viability, T/C [29] 101% | viability, T/C [30] 96.9% | viability, T/C [31] 84.8% | viability, T/C [32] 93.5% | viability, T/C [33] 94.5% | viability, T/C [34] 96.1% | viability, T/C [35] 86% | viability, T/C [36] 89.8%

COc1cc(C2c3cc4c(cc3C(OC3OC5COC(C)OC5C(O)C3O)C3COC(=O)C23)OCO4)cc(OC)c1O (stereo not given) + Nc1ccc(C#CCN(C(=O)Cc2ncc(C(F)(F)F)cc2C(F)(F)F)c2ccc(F)cc2)nn1
8.26 µM: IC50 (second compound 10 µM)
3.86 µM: IC50 (second compound 0.316 µM)
6.31 µM: IC50 (second compound 3.16 µM)
4.26 µM: IC50 (second compound 1 µM)
inactive: viability, T/C [1] 85.2% | viability, T/C [2] 84.2% | viability, T/C [3] 79.5% | viability, T/C [4] 76.3% | viability, T/C [5] 53.9% | viability, T/C [6] 50.1% | viability, T/C [7] 105% | viability, T/C [8] 89% | viability, T/C [9] 77.9% | viability, T/C [10] 70.5% | viability, T/C [11] 52.5% | viability, T/C [12] 44.9% | viability, T/C [13] 108% | viability, T/C [14] 90.6% | viability, T/C [15] 79.8% | viability, T/C [16] 69.1% | viability, T/C [17] 48.1% | viability, T/C [18] 41.2% | viability, T/C [19] 92.2% | viability, T/C [20] 81.9% | viability, T/C [21] 78% | viability, T/C [22] 74.9% | viability, T/C [23] 49.6% | viability, T/C [24] 48.8% | viability, T/C [25] 103% | viability, T/C [26] 85% | viability, T/C [27] 81% | viability, T/C [28] 69.2% | viability, T/C [29] 53.1% | viability, T/C [30] 46.8% | viability, T/C [31] 115% | viability, T/C [32] 85.6% | viability, T/C [33] 89.4% | viability, T/C [34] 65.8% | viability, T/C [35] 53% | viability, T/C [36] 50.7%
5.57 µM: IC50 (second compound 0.1 µM)
9.72 µM: IC50 (second compound 0.0316 µM)
